Key:
[1] = biological target: Interleukin-1 receptor-associated kinase 1 (Homo sapiens) (UniProt P51617); experiment: Inhibition of IRAK1 (unknown origin) assessed as residual activity at 100 nM by KINOMEscan analysis relative to control
[2] = biological target: Tyrosine-protein kinase SYK (Homo sapiens) (UniProt P43405); experiment: Inhibition of SYK (unknown origin) assessed as residual activity at 100 nM by KINOMEscan analysis relative to control
[3] = biological target: Activin receptor type-1-like (Homo sapiens) (UniProt P37023); experiment: Inhibition of ACVRL1 (unknown origin) assessed as residual activity at 100 nM by KINOMEscan analysis relative to control
Sequence of Activin receptor type-1-like (Homo sapiens) (P37023 whole entry): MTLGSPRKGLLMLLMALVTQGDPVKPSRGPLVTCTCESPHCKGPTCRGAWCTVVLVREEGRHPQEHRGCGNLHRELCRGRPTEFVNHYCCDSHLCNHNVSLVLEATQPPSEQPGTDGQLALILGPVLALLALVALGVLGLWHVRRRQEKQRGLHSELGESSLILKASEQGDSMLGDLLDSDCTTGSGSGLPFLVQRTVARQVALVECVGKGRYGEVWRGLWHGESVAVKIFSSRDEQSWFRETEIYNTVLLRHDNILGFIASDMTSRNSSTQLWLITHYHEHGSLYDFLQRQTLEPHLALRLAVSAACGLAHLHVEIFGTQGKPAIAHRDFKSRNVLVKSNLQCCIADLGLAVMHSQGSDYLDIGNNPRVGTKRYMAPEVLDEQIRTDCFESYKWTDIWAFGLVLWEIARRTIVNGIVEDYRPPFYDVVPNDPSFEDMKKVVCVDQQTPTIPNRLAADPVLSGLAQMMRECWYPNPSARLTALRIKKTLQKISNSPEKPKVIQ

[4] = biological target: T1, Serine/threonine-protein kinase BRSK2 (Homo sapiens) (UniProt Q8IWQ3); experiment: Inhibition of BRSK2 (unknown origin) assessed as residual activity at 100 nM by KINOMEscan analysis relative to control
T1 sequence (whole entry): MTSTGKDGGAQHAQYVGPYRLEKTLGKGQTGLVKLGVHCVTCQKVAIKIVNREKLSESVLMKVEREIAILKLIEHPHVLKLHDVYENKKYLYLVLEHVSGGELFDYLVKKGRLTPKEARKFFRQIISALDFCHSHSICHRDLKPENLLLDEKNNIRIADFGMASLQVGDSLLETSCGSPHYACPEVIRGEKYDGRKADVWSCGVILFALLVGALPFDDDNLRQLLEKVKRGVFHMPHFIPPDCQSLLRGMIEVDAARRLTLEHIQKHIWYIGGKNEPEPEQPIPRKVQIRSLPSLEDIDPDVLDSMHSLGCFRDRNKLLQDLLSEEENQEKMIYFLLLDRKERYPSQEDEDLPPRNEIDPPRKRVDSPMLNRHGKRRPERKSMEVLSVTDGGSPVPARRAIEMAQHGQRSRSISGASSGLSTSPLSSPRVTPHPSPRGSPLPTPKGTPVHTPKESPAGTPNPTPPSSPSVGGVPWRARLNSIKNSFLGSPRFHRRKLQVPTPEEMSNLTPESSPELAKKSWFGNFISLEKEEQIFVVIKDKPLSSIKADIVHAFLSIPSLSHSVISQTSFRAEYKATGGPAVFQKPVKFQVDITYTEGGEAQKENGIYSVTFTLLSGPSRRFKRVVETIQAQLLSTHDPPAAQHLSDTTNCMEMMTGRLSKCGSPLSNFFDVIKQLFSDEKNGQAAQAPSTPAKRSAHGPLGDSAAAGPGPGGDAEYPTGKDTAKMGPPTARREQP

[5] = test system: Mast/stem cell growth factor receptor Kit (Homo sapiens), P10721 [D816H]; experiment: Inhibition of KIT D816H mutant (unknown origin) assessed as residual activity at 100 nM by KINOMEscan analysis relative to control
Sequence of Mast/stem cell growth factor receptor Kit (Homo sapiens), P10721 [D816H] (P10721 whole entry D816H): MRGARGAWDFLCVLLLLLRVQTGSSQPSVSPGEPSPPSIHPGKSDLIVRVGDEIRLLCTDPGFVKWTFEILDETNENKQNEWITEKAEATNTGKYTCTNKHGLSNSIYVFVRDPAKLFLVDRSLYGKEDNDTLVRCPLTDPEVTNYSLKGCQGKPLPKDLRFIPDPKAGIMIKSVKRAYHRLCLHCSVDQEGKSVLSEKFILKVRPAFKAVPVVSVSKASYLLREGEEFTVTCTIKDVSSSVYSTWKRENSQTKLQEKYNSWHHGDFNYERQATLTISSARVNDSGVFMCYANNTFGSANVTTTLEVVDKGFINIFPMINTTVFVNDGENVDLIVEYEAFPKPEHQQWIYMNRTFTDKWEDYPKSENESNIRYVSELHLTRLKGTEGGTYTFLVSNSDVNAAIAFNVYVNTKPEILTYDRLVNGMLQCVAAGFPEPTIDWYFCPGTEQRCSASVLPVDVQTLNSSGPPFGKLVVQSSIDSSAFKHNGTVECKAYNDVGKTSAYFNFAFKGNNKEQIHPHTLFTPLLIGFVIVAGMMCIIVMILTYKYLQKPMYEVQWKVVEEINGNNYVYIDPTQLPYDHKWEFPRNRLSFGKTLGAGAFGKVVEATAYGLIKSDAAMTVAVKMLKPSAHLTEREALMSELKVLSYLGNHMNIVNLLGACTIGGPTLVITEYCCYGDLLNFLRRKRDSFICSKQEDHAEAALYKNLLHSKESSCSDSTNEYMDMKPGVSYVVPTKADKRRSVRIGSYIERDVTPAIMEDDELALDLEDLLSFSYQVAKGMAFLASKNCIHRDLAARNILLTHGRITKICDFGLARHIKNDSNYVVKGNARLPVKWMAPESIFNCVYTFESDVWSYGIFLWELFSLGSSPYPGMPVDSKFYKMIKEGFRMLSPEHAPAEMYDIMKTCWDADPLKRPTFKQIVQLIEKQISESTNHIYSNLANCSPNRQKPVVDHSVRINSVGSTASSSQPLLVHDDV

[6] = biological target: T2, Mitogen-activated protein kinase kinase kinase 2 (Homo sapiens) (UniProt Q9Y2U5); experiment: Inhibition of MAP3K2 (unknown origin) assessed as residual activity at 100 nM by KINOMEscan analysis relative to control
T2 sequence (whole entry): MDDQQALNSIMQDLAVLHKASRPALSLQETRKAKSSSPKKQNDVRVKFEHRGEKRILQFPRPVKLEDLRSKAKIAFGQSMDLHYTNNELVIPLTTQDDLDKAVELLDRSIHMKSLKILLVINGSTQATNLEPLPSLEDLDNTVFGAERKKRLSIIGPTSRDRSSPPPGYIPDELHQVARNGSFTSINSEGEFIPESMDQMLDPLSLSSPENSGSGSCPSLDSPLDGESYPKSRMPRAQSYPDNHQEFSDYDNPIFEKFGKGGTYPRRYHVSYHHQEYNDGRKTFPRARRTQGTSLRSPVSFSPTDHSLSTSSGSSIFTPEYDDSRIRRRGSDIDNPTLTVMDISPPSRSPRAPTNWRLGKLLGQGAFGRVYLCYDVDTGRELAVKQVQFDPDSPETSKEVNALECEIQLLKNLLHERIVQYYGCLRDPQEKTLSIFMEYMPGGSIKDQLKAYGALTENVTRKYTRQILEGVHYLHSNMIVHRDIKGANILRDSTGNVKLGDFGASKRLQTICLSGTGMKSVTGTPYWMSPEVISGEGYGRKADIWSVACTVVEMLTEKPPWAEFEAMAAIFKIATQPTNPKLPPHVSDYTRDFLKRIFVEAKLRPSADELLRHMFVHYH

[7] = biological target: T3, Homeodomain-interacting protein kinase 4 (Homo sapiens) (UniProt Q8NE63); experiment: Inhibition of HIPK4 (unknown origin) assessed as residual activity at 100 nM by KINOMEscan analysis relative to control
T3 sequence (whole entry): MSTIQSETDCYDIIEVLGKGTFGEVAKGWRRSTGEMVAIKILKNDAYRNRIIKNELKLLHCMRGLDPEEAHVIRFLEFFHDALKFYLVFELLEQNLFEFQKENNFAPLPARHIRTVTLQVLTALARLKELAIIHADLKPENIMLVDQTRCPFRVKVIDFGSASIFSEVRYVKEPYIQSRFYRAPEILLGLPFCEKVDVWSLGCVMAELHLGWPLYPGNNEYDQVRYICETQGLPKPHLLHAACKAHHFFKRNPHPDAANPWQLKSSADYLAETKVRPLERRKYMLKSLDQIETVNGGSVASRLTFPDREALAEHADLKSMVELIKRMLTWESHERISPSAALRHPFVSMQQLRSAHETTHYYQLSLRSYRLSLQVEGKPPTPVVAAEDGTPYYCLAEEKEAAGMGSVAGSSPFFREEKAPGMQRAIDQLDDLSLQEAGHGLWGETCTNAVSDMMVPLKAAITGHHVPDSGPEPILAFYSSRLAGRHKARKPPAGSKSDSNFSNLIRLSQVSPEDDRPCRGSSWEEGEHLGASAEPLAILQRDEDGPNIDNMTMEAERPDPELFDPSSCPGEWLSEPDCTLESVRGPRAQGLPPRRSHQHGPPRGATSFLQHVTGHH

[8] = biological target: T4, Serine/threonine-protein kinase 3 (Homo sapiens) (UniProt Q13188); experiment: Inhibition of MST2 (unknown origin) assessed as residual activity at 100 nM by KINOMEscan analysis relative to control
T4 sequence (whole entry): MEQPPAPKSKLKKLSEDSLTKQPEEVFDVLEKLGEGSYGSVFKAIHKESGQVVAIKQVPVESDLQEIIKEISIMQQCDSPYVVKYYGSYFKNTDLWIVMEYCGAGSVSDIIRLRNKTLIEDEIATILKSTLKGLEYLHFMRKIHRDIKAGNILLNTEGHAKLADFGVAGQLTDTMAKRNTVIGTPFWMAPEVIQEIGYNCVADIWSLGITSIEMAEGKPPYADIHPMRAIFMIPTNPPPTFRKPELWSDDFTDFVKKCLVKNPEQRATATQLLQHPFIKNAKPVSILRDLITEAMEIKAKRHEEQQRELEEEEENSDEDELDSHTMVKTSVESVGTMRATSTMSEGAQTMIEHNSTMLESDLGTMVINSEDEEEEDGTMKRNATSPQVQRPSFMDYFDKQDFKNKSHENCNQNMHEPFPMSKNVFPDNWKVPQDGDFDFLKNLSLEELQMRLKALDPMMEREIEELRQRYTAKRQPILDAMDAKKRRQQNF

Sequence of Interleukin-1 receptor-associated kinase 1 (Homo sapiens) (P51617 whole entry, looked up): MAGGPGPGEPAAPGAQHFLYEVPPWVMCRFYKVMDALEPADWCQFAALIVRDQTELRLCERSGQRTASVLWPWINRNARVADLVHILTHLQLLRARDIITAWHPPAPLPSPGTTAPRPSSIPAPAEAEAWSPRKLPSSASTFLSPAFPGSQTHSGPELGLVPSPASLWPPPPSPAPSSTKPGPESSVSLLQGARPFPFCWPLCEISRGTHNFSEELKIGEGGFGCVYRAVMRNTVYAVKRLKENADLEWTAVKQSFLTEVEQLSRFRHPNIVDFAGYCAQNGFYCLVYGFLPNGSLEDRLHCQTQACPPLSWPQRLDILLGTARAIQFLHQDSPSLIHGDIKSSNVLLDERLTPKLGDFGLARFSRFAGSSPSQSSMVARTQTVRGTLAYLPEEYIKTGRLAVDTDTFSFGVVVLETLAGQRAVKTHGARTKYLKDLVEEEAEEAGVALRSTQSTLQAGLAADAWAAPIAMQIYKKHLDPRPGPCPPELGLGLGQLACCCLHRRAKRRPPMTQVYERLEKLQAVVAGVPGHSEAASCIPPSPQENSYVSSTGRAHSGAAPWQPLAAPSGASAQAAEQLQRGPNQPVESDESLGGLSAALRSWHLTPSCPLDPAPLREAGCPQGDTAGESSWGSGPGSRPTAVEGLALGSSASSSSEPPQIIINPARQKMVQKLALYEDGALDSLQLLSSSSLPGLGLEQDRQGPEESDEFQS

## COc1cc2ncnc(N[C@H](C)c3cccc4ccccc34)c2cc1OC
[1]
  Activity: 94%
[2]
  Activity: 100%
[3]
  Activity: 82%
[4]
  Activity: 100%
[5]
  Activity: 89%
[6]
  Activity: 87%
[7]
  Activity: 100%
[8]
  Activity: 92%

Reference: ChEMBL document CHEMBL5678818, “Discovery of potent SOS1 inhibitors that block RAS activation via disruption of the RAS-SOS1 interaction” (Proc Natl Acad Sci U S A, 2019)
